{
  "source": "patent US12201610B2",
  "about": "“Compositions comprising aticaprant” (Janssen Pharmaceuticals, Inc., priority 2022, dated 2025)",
  "key": {"[1]": {"test_system": "subjects with MDD", "assay": "MADRS total score, adjunctive aticaprant vs placebo in MDD (Example 6)", "conditions": "for MADRS LSMeans difference estimate, supplementary analysis of data collected prior to 15 Mar. 2020 (COVID-19): MMRM"}, "[2]": {"test_system": "subjects with MDD", "assay": "SATE score (Example 6)", "assay_type": "in vivo, human", "conditions": "Treatment Week 6, aticaprant 10 mg", "description": "SATE is a one to three questionnaire administered when the subject is unable to complete other evaluations, i.e., away from the clinical setting such as at home. SATE is useful to evaluate improvement or deterioration of depressive symptoms of the subjects over a short period of time. […] See, Table 6.\niv. To investigate the effect of aticaprant on symptoms of depression using the Clinical Global Impression-Severity (CGI-S), the patient reported Symptoms of Major Depressive Disorder Scale (SMDDS) and the self-assessment of treatment experience (SATE).\n• (i) Depression: Montgomery-Åsberg Depression Rating Scale (MADRS), Clinical Global Impression-Severity (CGI-S), Symptoms of Major Depressive Disorder Scale (SMDDS), and Self-assessment of treatment experience (SATE) • (ii) Anhedonia: Snaith-Hamilton Pleasure Scale (SHAPS) • (iii) Anxiety: Structured Interview Guide for the Hamilton Anxiety scale (SIGH-A) and HAM-A6 • (iv) Effects on Cognition: The Cognitive and Physical Functioning Questionnaire (CPFQ) • (v) Safety assessments"}, "[3]": {"conditions": "fITT Analysis Set, High anhedonia, Treatment Week 1"}, "[4]": {"conditions": "fITT Analysis Set, High anhedonia, Treatment Week 3"}, "[5]": {"conditions": "fITT Analysis Set, High anhedonia, Treatment Week 4"}, "[6]": {"conditions": "fITT Analysis Set, High anhedonia, Treatment Week 5"}, "[7]": {"conditions": "fITT Analysis Set, High anhedonia, Treatment Week 6"}, "[8]": {"conditions": "fITT Analysis Set, Low anhedonia, Treatment Week 1"}, "[9]": {"conditions": "fITT Analysis Set, Low anhedonia, Treatment Week 3"}, "[10]": {"conditions": "fITT Analysis Set, Low anhedonia, Treatment Week 4"}, "[11]": {"conditions": "fITT Analysis Set, Low anhedonia, Treatment Week 5"}, "[12]": {"conditions": "fITT Analysis Set, Low anhedonia, Treatment Week 6"}, "[13]": {"conditions": "fITT, Treatment Week 1, 10 mg adjunctive to SSRI/SNRI"}, "[14]": {"conditions": "fITT, Treatment Week 3, 10 mg adjunctive to SSRI/SNRI"}, "[15]": {"conditions": "fITT, Treatment Week 4, 10 mg adjunctive to SSRI/SNRI"}, "[16]": {"conditions": "fITT, Treatment Week 5, 10 mg adjunctive to SSRI/SNRI"}, "[17]": {"conditions": "fITT, Treatment Week 6, 10 mg adjunctive to SSRI/SNRI"}, "[18]": {"conditions": "fITT, Treatment Week 6, high anhedonia level"}, "[19]": {"conditions": "fITT, Treatment Week 6, low anhedonia level"}},
  "data": [
    {"smiles": "Cc1cc(C)cc(C2CCCN2Cc2ccc(Oc3ccc(C(N)=O)cc3F)cc2)c1", "note": "(centres unmarked) [aticaprant, 3-fluoro-4-4-2-(3,5-dimethylphenyl)pyrrolidin-1-yl-methylphenoxybenzamide]", "values": [
      {"measurement": "MADRS Total Score Effect size", "setting": "[1]; eITT, Treatment Week 6, vs placebo, negative favors aticaprant", "result": 0.23},
      {"measurement": "MADRS Total Score Effect size", "setting": "[1]; eITT, Treatment Week 6, vs placebo, negative favors aticaprant, listed as Aticaprant", "result": "−0.23"},
      {"measurement": "MADRS LSMeans difference estimate, supplementary analysis of data collected prior to 15 Mar. 2020 (COVID-19)", "setting": "[1]; eITT, vs placebo", "result": "−3.0"},
      {"measurement": "MADRS Total Score Effect size", "setting": "[1]; [3]", "result": "−0.45"},
      {"measurement": "MADRS Total Score Mean Change from Baseline (SD)", "setting": "[1]; [3]", "result": "−4.4 (5.04)"},
      {"measurement": "MADRS Total Score Mean Change to Placebo (SD pooled)", "setting": "[1]; [3]", "result": "−2.0 (4.38)"},
      {"measurement": "MADRS Total Score Effect size", "setting": "[1]; [4]", "result": "−0.54"},
      {"measurement": "MADRS Total Score Mean Change from Baseline (SD)", "setting": "[1]; [4]", "result": "−6.9 (6.66)"},
      {"measurement": "MADRS Total Score Mean Change to Placebo (SD pooled)", "setting": "[1]; [4]", "result": "−3.8 (6.94)"},
      {"measurement": "MADRS Total Score Effect size", "setting": "[1]; [5]", "result": "−0.50"},
      {"measurement": "MADRS Total Score Mean Change from Baseline (SD)", "setting": "[1]; [5]", "result": "−8.6 (7.32)"},
      {"measurement": "MADRS Total Score Mean Change to Placebo (SD pooled)", "setting": "[1]; [5]", "result": "−3.8 (7.56)"},
      {"measurement": "MADRS Total Score Effect size", "setting": "[1]; [6]", "result": "−0.51"},
      {"measurement": "MADRS Total Score Mean Change from Baseline (SD)", "setting": "[1]; [6]", "result": "−10.2 (8.04)"},
      {"measurement": "MADRS Total Score Mean Change to Placebo (SD pooled)", "setting": "[1]; [6]", "result": "−4.0 (7.87)"},
      {"measurement": "MADRS Total Score Effect size", "setting": "[1]; [7]", "result": "−0.51"},
      {"measurement": "MADRS Total Score Mean Change from Baseline (SD)", "setting": "[1]; [7]", "result": "−11.3 (8.69)"},
      {"measurement": "MADRS Total Score Mean Change to Placebo (SD pooled)", "setting": "[1]; [7]", "result": "−4.6 (9.03)"},
      {"measurement": "MADRS Total Score Effect size", "setting": "[1]; [8]", "result": "−0.24"},
      {"measurement": "MADRS Total Score Mean Change from Baseline (SD)", "setting": "[1]; [8]", "result": "−2.4 (4.59)"},
      {"measurement": "MADRS Total Score Mean Change to Placebo (SD pooled)", "setting": "[1]; [8]", "result": "−1.0 (4.39)"},
      {"measurement": "MADRS Total Score Effect size", "setting": "[1]; [9]", "result": "−0.08"},
      {"measurement": "MADRS Total Score Mean Change from Baseline (SD)", "setting": "[1]; [9]", "result": "−4.1 (6.67)"},
      {"measurement": "MADRS Total Score Mean Change to Placebo (SD pooled)", "setting": "[1]; [9]", "result": "−0.5 (6.37)"},
      {"measurement": "MADRS Total Score Effect size", "setting": "[1]; [10]", "result": "−0.23"},
      {"measurement": "MADRS Total Score Mean Change from Baseline (SD)", "setting": "[1]; [10]", "result": "−6.4 (6.77)"},
      {"measurement": "MADRS Total Score Mean Change to Placebo (SD pooled)", "setting": "[1]; [10]", "result": "−1.5 (6.65)"},
      {"measurement": "MADRS Total Score Effect size", "setting": "[1]; [11]", "result": "−0.10"},
      {"measurement": "MADRS Total Score Mean Change from Baseline (SD)", "setting": "[1]; [11]", "result": "−7.3 (6.90)"},
      {"measurement": "MADRS Total Score Mean Change to Placebo (SD pooled)", "setting": "[1]; [11]", "result": "−0.7 (6.86)"},
      {"measurement": "MADRS Total Score Effect size", "setting": "[1]; [12]", "result": "−0.29"},
      {"measurement": "MADRS Total Score Mean Change from Baseline (SD)", "setting": "[1]; [12]", "result": "−8.8 (7.48)"},
      {"measurement": "MADRS Total Score Mean Change to Placebo (SD pooled)", "setting": "[1]; [12]", "result": "−2.3 (7.80)"},
      {"measurement": "MADRS Total Score Change from Baseline Mean (SD)", "setting": "[1]; [13]", "result": "−3.1"},
      {"measurement": "MADRS Total Score Mean (SD)", "setting": "[1]; [13]", "result": 21.7},
      {"measurement": "MADRS Total Score Mean Change to Placebo (SD pooled)", "setting": "[1]; [13]", "result": "−1.3 (4.43)"},
      {"measurement": "MADRS Total Score Effect size", "setting": "[1]; fITT, Treatment Week 1, vs placebo, negative favors aticaprant", "result": "−0.29"},
      {"measurement": "MADRS Total Score Change from Baseline Mean (SD)", "setting": "[1]; [14]", "result": "−5.1"},
      {"measurement": "MADRS Total Score Mean (SD)", "setting": "[1]; [14]", "result": 20.0},
      {"measurement": "MADRS Total Score Mean Change to Placebo (SD pooled)", "setting": "[1]; [14]", "result": "−1.7 (6.62)"},
      {"measurement": "MADRS Total Score Effect size", "setting": "[1]; fITT, Treatment Week 3, vs placebo, negative favors aticaprant", "result": "−0.26"},
      {"measurement": "MADRS Total Score Change from Baseline Mean (SD)", "setting": "[1]; [15]", "result": "−7.2"},
      {"measurement": "MADRS Total Score Mean (SD)", "setting": "[1]; [15]", "result": 17.9},
      {"measurement": "MADRS Total Score Mean Change to Placebo (SD pooled)", "setting": "[1]; [15]", "result": "−2.3 (7.02)"},
      {"measurement": "MADRS Total Score Effect size", "setting": "[1]; fITT, Treatment Week 4, vs placebo, negative favors aticaprant", "result": "−0.32"},
      {"measurement": "MADRS Total Score Change from Baseline Mean (SD)", "setting": "[1]; [16]", "result": "−8.3"},
      {"measurement": "MADRS Total Score Mean (SD)", "setting": "[1]; [16]", "result": 16.7},
      {"measurement": "MADRS Total Score Mean Change to Placebo (SD pooled)", "setting": "[1]; [16]", "result": "−1.9 (7.31)"},
      {"measurement": "MADRS Total Score Effect size", "setting": "[1]; fITT, Treatment Week 5, vs placebo, negative favors aticaprant", "result": "−0.26"},
      {"measurement": "percentage of subjects with MADRS remission (MADRS total score ≤10)", "setting": "[1]; fITT, Treatment Week 6", "result": 31.2, "unit": "%"},
      {"measurement": "percentage of subjects with ≥30% improvement in MADRS total score", "setting": "[1]; fITT, Treatment Week 6", "result": 61.8, "unit": "%"},
      {"measurement": "percentage of subjects with ≥50% improvement in MADRS total score", "setting": "[1]; fITT, Treatment Week 6", "result": 38.2, "unit": "%"},
      {"measurement": "MADRS Total Score Mean (SD)", "setting": "[1]; [17]", "result": 15.9},
      {"measurement": "MADRS Total Score Mean Change to Placebo (SD pooled)", "setting": "[1]; [17]", "result": "−3.0 (8.31)"},
      {"measurement": "MADRS total score change, difference between aticaprant and placebo", "setting": "[1]; [18]", "result": "−4.6"},
      {"measurement": "MADRS total score observed effect size", "setting": "[1]; [18]", "result": 0.51},
      {"measurement": "MADRS total score change, difference between aticaprant and placebo", "setting": "[1]; [19]", "result": "−2.3"},
      {"measurement": "MADRS total score observed effect size", "setting": "[1]; [19]", "result": 0.29},
      {"measurement": "MADRS Total Score Effect size", "setting": "[1]; fITT, Treatment Week 6, vs placebo, negative favors aticaprant", "result": 0.36},
      {"measurement": "MADRS Total Score Effect size", "setting": "[1]; fITT, Treatment Week 6, vs placebo, negative favors aticaprant, listed as Aticaprant", "result": "−0.36"},
      {"measurement": "onset of significant treatment effect favoring aticaprant (MADRS least squares mean change, FIG. 10-B)", "setting": "[1]; fITT, vs placebo", "result": 3, "unit": "week"},
      {"measurement": "MADRS LSMeans difference estimate, supplementary analysis of data collected prior to 15 Mar. 2020 (COVID-19)", "setting": "[1]; fITT, vs placebo", "result": "−3.4"},
      {"measurement": "SATE: Depression Worsened (Much worse)", "setting": "[2]; n = 0", "result": 0, "unit": "subjects"},
      {"measurement": "SATE: Depression Worsened (Slightly worse)", "setting": "[2]; n = 0", "result": 0, "unit": "subjects"},
      {"measurement": "SATE: Depression Worsened (Very much worse)", "setting": "[2]; n = 0", "result": 0, "unit": "subjects"},
      {"measurement": "SATE: Depression Much improved", "setting": "[2]; n = 21", "result": 6, "unit": "subjects"},
      {"measurement": "SATE: Depression Slightly improved", "setting": "[2]; n = 21", "result": 15, "unit": "subjects"},
      {"measurement": "SATE: Depression Very Much Improved", "setting": "[2]; n = 21", "result": 0, "unit": "subjects"},
      {"measurement": "SATE: Overall Depression (Got worse)", "setting": "[2]; n = 30", "result": 0, "unit": "subjects"},
      {"measurement": "SATE: Overall Depression (Improved)", "setting": "[2]; n = 30", "result": 21, "unit": "subjects"},
      {"measurement": "SATE: Overall Depression (Not changed)", "setting": "[2]; n = 30", "result": 9, "unit": "subjects"}
    ]}
  ]
}
